Laboratory results as given in ChEMBL document CHEMBL6087427, “Discovery of novel cyclopentane carboxylic acids as potent and selective inhibitors of NaV1.7” (Bioorg Med Chem Lett, 2025).
One block for each compound: values may come before it.

What was measured:
[1] = target: T1, Sodium channel protein type 9 subunit alpha (Homo sapiens, UniProt Q15858); assay: Displacement of [3H]GX-545 from Nav1.7 VSD4 (unknown origin)
Target sequence in this assay (Q15858 whole entry): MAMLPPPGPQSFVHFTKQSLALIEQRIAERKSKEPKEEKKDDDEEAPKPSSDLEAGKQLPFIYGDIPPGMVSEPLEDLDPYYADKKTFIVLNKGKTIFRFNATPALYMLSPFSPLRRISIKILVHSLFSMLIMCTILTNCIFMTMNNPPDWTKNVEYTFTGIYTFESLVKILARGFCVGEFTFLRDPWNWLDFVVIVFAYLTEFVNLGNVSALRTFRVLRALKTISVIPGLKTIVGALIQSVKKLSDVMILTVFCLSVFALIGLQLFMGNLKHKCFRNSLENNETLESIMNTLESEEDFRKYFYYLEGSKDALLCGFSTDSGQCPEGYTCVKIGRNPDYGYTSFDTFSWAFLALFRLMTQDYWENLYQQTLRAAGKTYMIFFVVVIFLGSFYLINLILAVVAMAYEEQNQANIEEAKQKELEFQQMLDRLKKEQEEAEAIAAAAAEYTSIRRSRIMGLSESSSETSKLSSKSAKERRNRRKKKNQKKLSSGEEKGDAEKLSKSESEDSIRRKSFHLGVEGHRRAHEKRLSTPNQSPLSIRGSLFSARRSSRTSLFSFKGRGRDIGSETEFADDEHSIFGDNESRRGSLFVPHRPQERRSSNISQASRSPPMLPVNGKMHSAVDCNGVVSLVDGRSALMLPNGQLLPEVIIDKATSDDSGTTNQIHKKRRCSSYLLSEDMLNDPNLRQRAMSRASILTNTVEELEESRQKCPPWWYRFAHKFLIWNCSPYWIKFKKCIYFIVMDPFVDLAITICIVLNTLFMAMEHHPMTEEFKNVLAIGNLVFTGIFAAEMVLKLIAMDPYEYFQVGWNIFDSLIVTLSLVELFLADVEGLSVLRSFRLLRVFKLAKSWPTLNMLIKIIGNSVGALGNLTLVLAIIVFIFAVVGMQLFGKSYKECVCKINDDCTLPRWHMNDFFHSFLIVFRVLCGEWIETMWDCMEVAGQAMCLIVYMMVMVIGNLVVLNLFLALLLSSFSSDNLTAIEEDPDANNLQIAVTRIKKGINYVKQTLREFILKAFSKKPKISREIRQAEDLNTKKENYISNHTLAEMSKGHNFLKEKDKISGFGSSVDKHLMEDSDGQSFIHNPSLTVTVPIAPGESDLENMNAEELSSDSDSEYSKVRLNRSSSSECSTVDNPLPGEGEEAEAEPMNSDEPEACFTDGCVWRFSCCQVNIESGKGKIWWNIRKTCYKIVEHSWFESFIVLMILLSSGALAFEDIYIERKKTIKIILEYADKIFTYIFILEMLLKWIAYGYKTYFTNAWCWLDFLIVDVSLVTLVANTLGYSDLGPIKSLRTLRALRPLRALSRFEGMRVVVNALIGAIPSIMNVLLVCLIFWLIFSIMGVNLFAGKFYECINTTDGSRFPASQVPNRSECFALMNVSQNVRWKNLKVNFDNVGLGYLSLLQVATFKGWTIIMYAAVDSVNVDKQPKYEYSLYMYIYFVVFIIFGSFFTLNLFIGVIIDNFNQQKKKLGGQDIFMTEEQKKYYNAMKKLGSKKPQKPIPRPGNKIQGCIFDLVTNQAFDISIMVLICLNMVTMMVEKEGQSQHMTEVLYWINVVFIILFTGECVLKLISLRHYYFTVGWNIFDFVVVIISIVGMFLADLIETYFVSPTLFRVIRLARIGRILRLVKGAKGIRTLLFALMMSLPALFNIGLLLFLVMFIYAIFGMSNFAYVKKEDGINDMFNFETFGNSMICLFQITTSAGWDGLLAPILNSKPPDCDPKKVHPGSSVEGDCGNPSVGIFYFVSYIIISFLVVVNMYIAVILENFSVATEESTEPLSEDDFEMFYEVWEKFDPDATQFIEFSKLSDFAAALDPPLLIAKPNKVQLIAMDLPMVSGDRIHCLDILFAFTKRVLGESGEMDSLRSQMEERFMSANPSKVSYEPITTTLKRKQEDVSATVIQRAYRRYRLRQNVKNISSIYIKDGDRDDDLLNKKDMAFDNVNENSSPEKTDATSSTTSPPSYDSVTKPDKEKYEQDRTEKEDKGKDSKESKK

[2] = target: T1, Sodium channel protein type 9 subunit alpha; assay: Inhibition of human Nav1.7 by patch clamp electrophysiology
Target sequence in this assay (Q15858 whole entry): as above

[3] = target: T1, Sodium channel protein type 9 subunit alpha; assay: Inhibition of human Nav1.7 by sodium flux assay
Target sequence in this assay (Q15858 whole entry): as above

[4] = target: T1, Sodium channel protein type 9 subunit alpha; assay: Inhibition of human Nav1.7 assessed as fold shift in IC50 in presence of BSA by sodium flux assay
Target sequence in this assay (Q15858 whole entry, looked up): as the sequence (Q15858 whole entry) above

[5] = Metabolic stability in human liver microsomes assessed as hepatic clearance; assay type: ADME, Microsome
[6] = Metabolic stability in mouse liver microsomes assessed as hepatic clearance; assay type: ADME, Microsome
[7] = AUC in mouse at 3 mg/kg, po; assay type: ADME, organism-based; conditions: in vivo, read-out: AUC
[8] = target: Sodium channel protein type 5 subunit alpha (Homo sapiens, UniProt Q14524); assay: Inhibition of human Nav1.5 by patch clamp electrophysiology
Sodium channel protein type 5 subunit alpha, sequence (Q14524 whole entry): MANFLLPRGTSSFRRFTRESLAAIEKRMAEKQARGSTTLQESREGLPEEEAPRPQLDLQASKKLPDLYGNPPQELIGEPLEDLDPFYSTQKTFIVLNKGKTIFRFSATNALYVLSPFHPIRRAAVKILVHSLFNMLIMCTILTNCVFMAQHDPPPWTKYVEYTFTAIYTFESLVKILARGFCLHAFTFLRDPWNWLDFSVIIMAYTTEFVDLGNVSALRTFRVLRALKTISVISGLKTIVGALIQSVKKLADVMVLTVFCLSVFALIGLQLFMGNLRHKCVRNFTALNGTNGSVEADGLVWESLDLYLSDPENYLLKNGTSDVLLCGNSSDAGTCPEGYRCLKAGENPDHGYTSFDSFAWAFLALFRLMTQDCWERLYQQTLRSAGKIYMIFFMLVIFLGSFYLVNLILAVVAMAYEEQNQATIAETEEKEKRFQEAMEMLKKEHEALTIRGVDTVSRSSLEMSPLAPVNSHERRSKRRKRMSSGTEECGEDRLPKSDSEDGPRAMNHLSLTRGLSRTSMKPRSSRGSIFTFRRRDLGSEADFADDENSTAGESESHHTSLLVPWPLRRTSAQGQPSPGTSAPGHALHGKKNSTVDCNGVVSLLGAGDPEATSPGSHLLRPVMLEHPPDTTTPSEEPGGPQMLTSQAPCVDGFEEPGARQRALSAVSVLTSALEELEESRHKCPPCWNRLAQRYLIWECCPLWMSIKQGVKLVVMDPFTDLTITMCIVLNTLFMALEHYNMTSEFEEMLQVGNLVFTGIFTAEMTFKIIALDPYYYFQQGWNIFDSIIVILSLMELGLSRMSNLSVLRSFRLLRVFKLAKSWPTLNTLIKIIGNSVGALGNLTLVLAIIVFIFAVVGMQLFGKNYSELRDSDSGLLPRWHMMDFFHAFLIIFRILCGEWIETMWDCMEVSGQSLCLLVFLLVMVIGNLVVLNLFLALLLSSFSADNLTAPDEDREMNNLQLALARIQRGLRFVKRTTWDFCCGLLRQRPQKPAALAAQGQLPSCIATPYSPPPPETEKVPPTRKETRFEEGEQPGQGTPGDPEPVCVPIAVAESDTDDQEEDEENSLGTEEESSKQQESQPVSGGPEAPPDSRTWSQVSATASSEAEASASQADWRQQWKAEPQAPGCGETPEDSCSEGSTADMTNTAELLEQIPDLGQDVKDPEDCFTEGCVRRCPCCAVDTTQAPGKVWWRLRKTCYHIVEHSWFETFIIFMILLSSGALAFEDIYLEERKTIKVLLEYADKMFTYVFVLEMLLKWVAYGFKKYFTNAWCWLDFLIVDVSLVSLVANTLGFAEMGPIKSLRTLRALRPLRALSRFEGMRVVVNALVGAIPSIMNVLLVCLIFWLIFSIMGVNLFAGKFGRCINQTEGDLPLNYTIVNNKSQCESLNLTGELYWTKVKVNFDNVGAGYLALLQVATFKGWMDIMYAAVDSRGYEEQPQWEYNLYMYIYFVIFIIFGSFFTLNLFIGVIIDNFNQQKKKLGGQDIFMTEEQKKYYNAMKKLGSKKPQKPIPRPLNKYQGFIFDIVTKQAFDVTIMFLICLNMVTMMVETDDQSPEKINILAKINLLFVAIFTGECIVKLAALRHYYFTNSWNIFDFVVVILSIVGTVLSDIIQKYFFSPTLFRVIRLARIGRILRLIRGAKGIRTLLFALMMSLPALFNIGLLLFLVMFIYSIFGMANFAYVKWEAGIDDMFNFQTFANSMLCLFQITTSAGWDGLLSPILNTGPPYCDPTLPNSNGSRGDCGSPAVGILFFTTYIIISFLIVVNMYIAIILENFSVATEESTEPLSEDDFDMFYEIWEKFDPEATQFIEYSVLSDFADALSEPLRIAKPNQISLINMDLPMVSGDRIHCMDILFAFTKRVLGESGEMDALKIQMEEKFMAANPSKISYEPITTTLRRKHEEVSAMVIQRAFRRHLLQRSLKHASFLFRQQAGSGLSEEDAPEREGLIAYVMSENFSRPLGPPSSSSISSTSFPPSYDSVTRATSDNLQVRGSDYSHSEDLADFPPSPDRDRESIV

Ki [1]: 220 nM
Structure (SMILES): C[C@@H]1[C@H](F)CN(C(=O)c2cc(C3CC3)c(OCC34CC5CC(CC(C5)C3)C4)cc2F)[C@@H]1C(=O)O

Ki [1]: 870 nM
Structure (SMILES): N#C[C@H]1C[C@@H](C(=O)O)N(C(=O)c2cc(C3CC3)c(OCC34CC5CC(CC(C5)C3)C4)cc2F)C1

Ki [1]: 560 nM
Structure (SMILES): O=C(O)[C@@H]1C[C@H](F)CN1C(=O)c1cc(C2CC2)c(OCC23CC4CC(CC(C4)C2)C3)cc1F

Ki [1]: 150 nM
Structure (SMILES): O=C(O)[C@@H]1C[C@H](O)CN1C(=O)c1cc(C2CC2)c(OCC23CC4CC(CC(C4)C2)C3)cc1F

Ki [1]: 600 nM
Structure (SMILES): O=C(O)[C@@H]1[C@@H](O)CCN1C(=O)c1cc(C2CC2)c(OCC23CC4CC(CC(C4)C2)C3)cc1F

Ki [1]: 49 nM
Structure (SMILES): C[C@H]1C[C@@H](C(=O)O)N(C(=O)c2cc(C3CC3)c(OCC34CC5CC(CC(C5)C3)C4)cc2F)C1

Ki [1]: 85 nM
Structure (SMILES): C[C@@H]1C[C@@H](C(=O)O)N(C(=O)c2cc(C3CC3)c(OCC34CC5CC(CC(C5)C3)C4)cc2F)C1

Ki [1]: 20 nM | IC50 [2]: 33 nM | IC50 [3]: 180 nM | fold change (FC) [4]: 2.2 | CLhep predicted [5]: 11 mL/min/kg | CLhep predicted [6]: 61 mL/min/kg | AUC [7]: 0.079 µM·h
Structure (SMILES): O=C(O)[C@@H]1CCCN1C(=O)c1cc(C2CC2)c(OCC23CC4CC(CC(C4)C2)C3)cc1F

Ki [1]: 1.8 nM | IC50 [2]: 10 nM | IC50 [3]: 160 nM | fold change (FC) [4]: 1 | CLhep predicted [5]: 11 mL/min/kg | CLhep predicted [6]: 53 mL/min/kg | AUC [7]: 0.24 µM·h
Structure (SMILES): C[C@@H]1[C@@H](C(=O)O)[C@H](C(=O)c2cc(C3CC3)c(OCC34CC5CC(CC(C5)C3)C4)cc2F)C[C@@H]1F
IC50 [8]: 6000 nM

Ki [1]: 21 nM
Structure (SMILES): C[C@H]1[C@H](O)CN(C(=O)c2cc(C3CC3)c(OCC34CC5CC(CC(C5)C3)C4)cc2F)[C@@H]1C(=O)O

Ki [1]: 100 nM
Structure (SMILES): C[C@@]1(C(=O)O)CCCN1C(=O)c1cc(C2CC2)c(OCC23CC4CC(CC(C4)C2)C3)cc1F

Ki [1]: 390 nM
Structure (SMILES): O=C(O)[C@@H]1C[C@@H](O)CN1C(=O)c1cc(C2CC2)c(OCC23CC4CC(CC(C4)C2)C3)cc1F
